Results taken from PubChem BioAssay (NCI).
Values joined by “and” are separate entries in the source; they are usually repeats but may differ in a detail not shown here. Identical values can stand only once.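 Compound exposure: 48 hours, 5 concentrations, 96-well plates. The concentration for 50% growth inhibition is given as GI50. TGI: total growth inhibition.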

Key:
Assay in all cases: NCI tumour cell line growth inhibition, 48 h
U251 CNS = tested on: U251 CNS
SK-MEL-2 melanoma = tested on: SK-MEL-2 melanoma
SNB-19 CNS = tested on: SNB-19 CNS
UO-31 renal = tested on: UO-31 renal
M14 melanoma = tested on: M14 melanoma
UACC-257 melanoma = tested on: UACC-257 melanoma
HOP-62 NSCLC = tested on: HOP-62 NSCLC
HOP-92 NSCLC = tested on: HOP-92 NSCLC
SR leukemia = tested on: SR leukemia
SNB-78 CNS = tested on: SNB-78 CNS
COLO 205 colon = tested on: COLO 205 colon
A498 renal = tested on: A498 renal
NCI-H226 lung = tested on: NCI-H226 lung
MDA-MB-231 breast = tested on: MDA-MB-231 breast
HS 578T breast = tested on: HS 578T breast
KM12 colon = tested on: KM12 colon
DLD-1 colon = tested on: DLD-1 colon
DMS 273 small cell lung = tested on: DMS 273 small cell lung
OVCAR-3 ovarian = tested on: OVCAR-3 ovarian
KM20L2 colon = tested on: KM20L2 colon
SNB-75 CNS = tested on: SNB-75 CNS
HCT-15 colon = tested on: HCT-15 colon
RPMI-8226 leukemia = tested on: RPMI-8226 leukemia
LOX IMVI melanoma = tested on: LOX IMVI melanoma
OVCAR-4 ovarian = tested on: OVCAR-4 ovarian
DMS 114 small cell lung = tested on: DMS 114 small cell lung
SK-MEL-28 melanoma = tested on: SK-MEL-28 melanoma
IGROV1 ovarian = tested on: IGROV1 ovarian
A549 NSCLC = tested on: A549 NSCLC
PC-3 prostate = tested on: PC-3 prostate
SW-620 colon = tested on: SW-620 colon
SF-539 CNS = tested on: SF-539 CNS
NCI/ADR-RES ovarian = tested on: NCI/ADR-RES ovarian
DU-145 prostate = tested on: DU-145 prostate
K-562 leukemia = tested on: K-562 leukemia
HCC-2998 colon = tested on: HCC-2998 colon
MCF7 breast = tested on: MCF7 breast
HT29 colon = tested on: HT29 colon
MDA-N = tested on: MDA-N
NCI-H460 lung = tested on: NCI-H460 lung
T-47D breast = tested on: T-47D breast
CAKI-1 renal = tested on: CAKI-1 renal
786-0 renal = tested on: 786-0 renal
EKVX NSCLC = tested on: EKVX NSCLC
SN12C renal = tested on: SN12C renal
BT-549 breast = tested on: BT-549 breast
P388/ADR leukemia = tested on: P388/ADR leukemia
SK-OV-3 ovarian = tested on: SK-OV-3 ovarian
UACC-62 melanoma = tested on: UACC-62 melanoma
NCI-H522 lung = tested on: NCI-H522 lung
OVCAR-5 ovarian = tested on: OVCAR-5 ovarian
ACHN renal = tested on: ACHN renal

CCN(CC)CCOc1cccc2nc3c(cc12)Cn1c-3cc2c(c1=O)COC(=O)C2(O)CC (stereo not drawn)
GI50 (U251 CNS): 0.0867 µM and 0.358 µM
TGI (U251 CNS): 1.43 µM and 11.1 µM
GI50 (SK-MEL-2 melanoma): 12.3 µM and 17.9 µM
TGI (SK-MEL-2 melanoma): 25.3 µM and 39.6 µM
GI50 (SNB-19 CNS): 0.329 µM and 0.87 µM
TGI (SNB-19 CNS): 30.6 µM and > 58.1 µM
GI50 (UO-31 renal): 1.8 µM and 3.19 µM
TGI (UO-31 renal): 8.7 µM and 11.9 µM
GI50 (M14 melanoma): 1.11 µM
TGI (M14 melanoma): 11.5 µM
GI50 (UACC-257 melanoma): 11 µM and 7.08 µM
TGI (UACC-257 melanoma): 23.1 µM and 21 µM
GI50 (HOP-62 NSCLC): 0.356 µM
TGI (HOP-62 NSCLC): 2.63 µM
GI50 (HOP-92 NSCLC): 5.42 µM and 4.83 µM
TGI (HOP-92 NSCLC): 22.5 µM and 18.3 µM
GI50 (SR leukemia): 0.169 µM
TGI (SR leukemia): 0.716 µM
GI50 (SNB-78 CNS): 14.1 µM
TGI (SNB-78 CNS): 80.2 µM
GI50 (COLO 205 colon): 6.58 µM and 1.94 µM
TGI (COLO 205 colon): 21.8 µM and 30.5 µM
GI50 (A498 renal): 2.13 µM and 3.91 µM
TGI (A498 renal): 6.74 µM and 18.2 µM
GI50 (NCI-H226 lung): 0.963 µM and 2.23 µM
TGI (NCI-H226 lung): 10.9 µM and 16.8 µM
GI50 (MDA-MB-231 breast): 19.8 µM
TGI (MDA-MB-231 breast): 46.4 µM
GI50 (HS 578T breast): 83.9 µM
TGI (HS 578T breast): > 100 µM
GI50 (KM12 colon): 4.53 µM and 7.49 µM
TGI (KM12 colon): 18.5 µM and 25.6 µM
GI50 (DLD-1 colon): 10.9 µM
TGI (DLD-1 colon): 38.8 µM
GI50 (DMS 273 small cell lung): 0.086 µM and 0.33 µM
TGI (DMS 273 small cell lung): 1.58 µM and 11.8 µM
GI50 (OVCAR-3 ovarian): 5.64 µM and 9.73 µM
TGI (OVCAR-3 ovarian): 20.3 µM and 25.9 µM
GI50 (KM20L2 colon): 2 µM
TGI (KM20L2 colon): 14.4 µM
GI50 (SNB-75 CNS): 1.34 µM and 0.545 µM
TGI (SNB-75 CNS): 19.5 µM and 5.09 µM
GI50 (HCT-15 colon): 5.14 µM and 8.13 µM
TGI (HCT-15 colon): 26.1 µM and 37.8 µM
GI50 (RPMI-8226 leukemia): 1.47 µM
TGI (RPMI-8226 leukemia): 22.5 µM
GI50 (LOX IMVI melanoma): 0.429 µM and 0.508 µM
TGI (LOX IMVI melanoma): 11.3 µM and 12.1 µM
GI50 (OVCAR-4 ovarian): 11.2 µM and 8.77 µM
TGI (OVCAR-4 ovarian): 25.9 µM and 29.1 µM
GI50 (DMS 114 small cell lung): 0.139 µM and 0.206 µM
GI50 (SK-MEL-28 melanoma): 7.51 µM and 12.3 µM
TGI (SK-MEL-28 melanoma): 20.7 µM and 30 µM
GI50 (IGROV1 ovarian): 5.77 µM and 4.63 µM
TGI (IGROV1 ovarian): 21.6 µM and > 44.8 µM
GI50 (A549 NSCLC): 0.787 µM and 2.06 µM
TGI (A549 NSCLC): 20.4 µM and 13 µM
GI50 (PC-3 prostate): 4.62 µM
TGI (PC-3 prostate): > 100 µM
GI50 (SW-620 colon): 2.17 µM and 4.33 µM
TGI (SW-620 colon): 29.7 µM and 36.6 µM
GI50 (SF-539 CNS): 0.267 µM and 0.774 µM
TGI (SF-539 CNS): 1.47 µM and 3.93 µM
GI50 (NCI/ADR-RES ovarian): 0.886 µM and 3.07 µM
TGI (NCI/ADR-RES ovarian): 18 µM and 19.1 µM
GI50 (DU-145 prostate): 0.423 µM
TGI (DU-145 prostate): 3.77 µM
GI50 (K-562 leukemia): 2.53 µM
TGI (K-562 leukemia): > 46.9 µM
GI50 (HCC-2998 colon): 7.1 µM
TGI (HCC-2998 colon): 21.8 µM
GI50 (MCF7 breast): 0.182 µM and 0.449 µM
TGI (MCF7 breast): 14.9 µM and 22.4 µM
GI50 (HT29 colon): 2.19 µM and 2.44 µM
TGI (HT29 colon): 12.7 µM and 13.5 µM
GI50 (MDA-N): 13 µM
TGI (MDA-N): 35.1 µM
GI50 (NCI-H460 lung): 0.0754 µM and 0.282 µM
TGI (NCI-H460 lung): 1.88 µM and 11.8 µM
GI50 (T-47D breast): 0.739 µM
TGI (T-47D breast): 7.25 µM
GI50 (CAKI-1 renal): 0.889 µM
TGI (CAKI-1 renal): 13.8 µM
GI50 (786-0 renal): 0.595 µM
TGI (786-0 renal): 11.7 µM
GI50 (EKVX NSCLC): 7.37 µM
TGI (EKVX NSCLC): > 40 µM
GI50 (SN12C renal): 0.266 µM and 0.747 µM
TGI (SN12C renal): 9.16 µM and > 41.5 µM
GI50 (BT-549 breast): 2.99 µM
TGI (BT-549 breast): 17.2 µM
GI50 (P388/ADR leukemia): 2.56 µM
TGI (P388/ADR leukemia): 8.27 µM
GI50 (SK-OV-3 ovarian): 4.39 µM
TGI (SK-OV-3 ovarian): > 43.4 µM
GI50 (UACC-62 melanoma): 0.147 µM and 0.273 µM
TGI (UACC-62 melanoma): 0.955 µM and 1.56 µM
GI50 (NCI-H522 lung): 7.54 µM and 1.36 µM
TGI (NCI-H522 lung): 23.1 µM and 14.5 µM
GI50 (OVCAR-5 ovarian): 0.45 µM and 3.46 µM
TGI (OVCAR-5 ovarian): 3.81 µM and 32.7 µM
GI50 (ACHN renal): 0.675 µM
TGI (ACHN renal): > 100 µM
